This is an account of results in patent US12428391B2, “Dimethylsulfoximine derivative” (CISEN PHARMACEUTICAL CO., LTD, priority 2020, dated 2025).

One data set concerns the target T1, NLRP3 (Homo sapiens, UniProt Q96P20).
T1 construct: endogenous in cells
Put plainly: IC50 experiment for the detection of NLRP3 antagonist using THP-1 cells (IL-1β secretion, PMA/LPS/ATP). The data set is classed as cell-based. The text has this: The chemical names and structural formulas of the compounds of the present disclosure for experimental use are shown in the preparation embodiments for each compound. • 1. Experimental principle: In this experiment, the human monocytic cell line THP1 was used to study the inhibitory activity (IC50) of NLRP3 antagonists on the secretion of IL-1β. The monocytic cell line THP1 was differentiated into mature macrophages using PMA (phorbol 12-myristate 13-acetate), and then the cells were stimulated using LPS (lipopolysaccharide), an agonist of Toll-like receptor TLR4, to activate the transcriptional activity of inflammasome NLRP3 and the expression of IL-1β precursor pro-IL-1β. At this time, the NLRP3 antagonist was added, and then ATP was added to further mature and activate NLRP3, and activate downstream caspase-1. Pro-IL-1β could be enzyme-cleaved by the activated caspase-1 to mature IL-1β that could be secreted.

Data set [1] can be described thus: Pharmacokinetic evaluation of compounds in mice. Type of data set: in vivo. Conditions: C57BL/6J mice. On the procedure: Experimental Objective: To Test the Pharmacokinetics of Compounds in Mice
Experimental Materials: C57BL/6J Mice (Male, 6-8 Weeks Old)
Experimental operation: The clear solution obtained after the test compound was dissolved was administered to […] C57BL/6J mice (overnight fasting, 6-8 weeks old) via tail intravenous injection and intragastric administration (vehicle: 10% DMSO/10% solutol/80% water). After administration of test compound or control compound, blood was collected from the mandibular vein and centrifuged to obtain plasma at 0.0833, 0.25, 0.5, 1, 2, 4, 8 and 24 h for the intravenous injection group (IV) and at 0.25, 0.5, 1, 2, 4, 6, 8 and 24 h for the intragastric administration group (PO). The plasma concentration was determined by LC-MS/MS, and relevant pharmacokinetic parameters were calculated by the non-compartmental model linear logarithmic trapezoidal method using pharmacokinetic software WinNonlin™ Version 6.3. Meaning of each parameter: T1/2: half-life; Cmax: peak concentration; AUC0-inf: area under the plasma concentration-time curve from time 0 extrapolated to infinite time; F: bioavailability, Vd: apparent volume of distribution, Cl: clearance rate, Tmax: time to peak.

For data set [2], the system named is MSU-induced Air Pouch acute gout model. Put plainly: MSU-induced Air Pouch acute gout model, IL-6 and IL-1β in APLV. Type of data set: in vivo, C57BL/6 mice. As to conditions: for level of IL-1β in APLV after treatment / level of IL-6 in APLV after treatment: MCC950 50 mg/kg po, 7a 50, 15, 5 mg/kg po, dexamethasone 10 mg/kg ip, MSU 3 mg. On the procedure:
Experimental Embodiment 3: Evaluation of the Therapeutic Effect of the Compound on the MSU-Induced Air Pouch Acute Gout Model in C57BL/6 Mice
Air Pouch of mouse is a cystic space similar to the human synovial membrane, and the injection of monosodium urate crystals (MSU) into the air pouch will cause an acute inflammatory response similar to human gout. The inflammatory cytokines IL-6 and IL-1β in the Air Pouch Lavage Fluid flushing fluid (APLV) were analyzed, and MCC950 was used as a control compound, and the efficacy of the compound of the present disclosure on the MSU-induced air pouch gout model in male C57BL/6 mice was tested.
On the seventh day, the drug was administered first, and the MSU crystal solution was injected into the air pouch after 1 hour, and the Air Pouch Lavage Fluid (APLV) was collected after 7 hours and analyzed.
1 g of uric acid was dissolved in 0.2 L of boiling water containing 6 mL of 1 N sodium hydroxide; after the pH was adjusted to 7.4, the solution was gradually cooled at room temperature and then left overnight at 4° C. MSU crystals were recovered by centrifugation and evaporated to dryness, dispensed into individual vials (3 mg), and sterilized by autoclaving.
Healthy C57BL/6 mice were numbered and grouped in the experiment, and 5 mL of sterile air was subcutaneously injected into the back of the mice on the same day of grouping (Day 1) and on the fourth day (Day 4) to generate an air pouch. On the seventh day (Day 7), each group of mice was given vehicle or test sample, and after 1 hour the suspension of MSU crystals (saline, 3 mg/mL) was injected into the air pouch. Air Pouch Lavage Fluid (APLV) would be collected after 6 hours, and ELISA kits would be used to test the levels of IL-6 and IL-1β in APLV. Results were expressed as average value±SEM. Statistical analysis was performed by a method of analysis of variance (ANOVA), followed by Dunnett test, and differences were considered significant when p<0.05.

Another data set concerns the target NLRP3 inflammasome (Homo sapiens, UniProt Q96P20). Conditions: cited from earlier work.
Data set [3] has as its system cryopyrin-associated auto-inflammatory syndrome (cAPS) model. Conditions: mice; cited from earlier work.
A further data set has as its system type II diabete model. Conditions: mice; cited from earlier work.
Data set [4] relates to experimental autoimmune encephalomyelitis (EAE). As to conditions: mice; cited from earlier work.
[5] abbreviates: at the dose of 15 mg/kg and 50 mg/kg po.

The structures appear in SMILES notation.

T1 sequence (Q96P20 whole entry): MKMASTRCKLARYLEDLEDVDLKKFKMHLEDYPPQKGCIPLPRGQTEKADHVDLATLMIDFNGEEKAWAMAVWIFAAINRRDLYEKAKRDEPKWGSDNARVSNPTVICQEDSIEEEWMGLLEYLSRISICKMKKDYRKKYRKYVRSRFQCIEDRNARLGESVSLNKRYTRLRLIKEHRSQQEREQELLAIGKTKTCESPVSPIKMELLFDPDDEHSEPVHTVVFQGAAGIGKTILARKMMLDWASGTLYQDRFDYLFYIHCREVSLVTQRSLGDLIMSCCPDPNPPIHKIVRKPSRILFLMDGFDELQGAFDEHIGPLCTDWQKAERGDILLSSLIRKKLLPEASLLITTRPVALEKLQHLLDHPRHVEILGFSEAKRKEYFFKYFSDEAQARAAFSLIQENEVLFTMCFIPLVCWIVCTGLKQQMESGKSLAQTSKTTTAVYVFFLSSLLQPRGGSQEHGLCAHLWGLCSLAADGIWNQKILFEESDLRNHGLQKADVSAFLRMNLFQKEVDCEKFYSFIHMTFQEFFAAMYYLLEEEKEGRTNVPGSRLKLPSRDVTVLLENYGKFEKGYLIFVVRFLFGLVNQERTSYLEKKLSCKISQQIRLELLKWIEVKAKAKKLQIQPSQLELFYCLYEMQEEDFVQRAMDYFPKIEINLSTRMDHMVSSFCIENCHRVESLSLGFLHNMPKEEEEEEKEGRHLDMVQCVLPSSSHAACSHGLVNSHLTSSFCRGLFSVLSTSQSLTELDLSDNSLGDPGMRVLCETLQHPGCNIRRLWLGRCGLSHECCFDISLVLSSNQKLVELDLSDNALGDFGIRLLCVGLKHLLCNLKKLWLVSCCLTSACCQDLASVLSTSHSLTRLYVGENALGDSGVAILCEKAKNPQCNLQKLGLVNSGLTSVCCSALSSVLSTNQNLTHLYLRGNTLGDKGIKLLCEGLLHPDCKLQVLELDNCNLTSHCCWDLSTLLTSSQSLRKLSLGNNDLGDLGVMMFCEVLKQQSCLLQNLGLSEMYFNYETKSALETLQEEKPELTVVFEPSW
Chain of NLRP3 inflammasome (Q96P20 whole entry): as above

`CS(C)(=O)=Nc1ccc(S(=N)(=O)NC(=O)Nc2c3c(cc4c2CCC4)CCC3)s1` (single isomer, unassigned) [Compound 4a]: at NLRP3, the half-inhibitory concentration (IC50) was 33.9 nM.

Regarding `COc1cc(-c2ccc3c(c2NC(=O)NS(=N)(=O)c2ccc(N=S(C)(C)=O)s2)CCC3)ccn1` (single isomer, unassigned) [Compound 5a], 7.4 nM corresponded to half-maximal inhibition against NLRP3 (IC50).

Take `CS(C)(=O)=Nc1cnc(S(=N)(=O)NC(=O)Nc2c3c(cc4c2CCC4)CCC3)s1` (single isomer, unassigned) [Compound 7a]: the F in data set [1] (PO 20 mg/kg vs IV 3 mg/kg) came to 67.6%. For the same molecule, in data set [1] (mouse, plasma, IV 3 mg/kg), the AUC(0-inf) amounted to 65.7 µM·h, the volume of distribution (Vd) turned out to be 0.25 L/kg, the clearance came to 1.68 mL/min/kg and the half-life was 2.1 h. Further, in data set [1] (mouse, plasma, PO 20 mg/kg), the area under the curve AUC(0-inf) came to 296 µM·h, the Cmax is 102 µM and the Tmax was 0.5 h. Moreover, in data set [2], the “level of IL-1β in APLV after treatment” value is given as “decreased rapidly” and the “level of IL-6 in APLV after treatment” value is “decreased rapidly”. Further, the “reducing IL-6 in APLV compared with dexamethasone (10 mg/kg dose)” value in data set [2] (at high, medium and low doses (50, 15, 5 mg/kg po)) was “better than dexamethasone”. In data set [2] (setting [5]), the “reducing IL-1β in APLV compared with MCC950 (50 mg/kg dose)” value is given as “significantly better than that of MCC950”, the “reducing IL-1β in APLV compared with dexamethasone (10 mg/kg)” value is reported as “reaching the same effect as dexamethasone” and the “reducing IL-6 in APLV compared with MCC950 (50 mg/kg dose)” value is “better than MCC950”. Besides, in data set [2] (po, MSU-induced air pouch), the “effect on reducing IL-1β in APLV” value is “significant effect”. Moreover, half-maximal inhibition on NLRP3 (IC50) was put at 9.8 nM.

Turning to `O=C(O)c1ccc(/C=C2\SC(=O)N(Cc3cccc(C(F)(F)F)c3)C2=O)cc1` [CY-09], the “assembly and activation of NLRP3 inflammasome” value on NLRP3 inflammasome is given as “specifically blocks”. Also, the “therapeutic effect on cAPS model” value in data set [3] is “significant therapeutic effects”. Besides, the “therapeutic effect on type II diabete model” value in the data set on type II diabete model was “significant therapeutic effects”.

Molecule `COc1cc(-c2cccc(C(C)C)c2NC(=O)NS(=O)(=O)c2ccc(N=S(C)(C)=O)s2)ccn1` [Compound 2] returned an IC50 at NLRP3 of 40 nM.

At NLRP3, `COc1cc(-c2ccc3c(c2NC(=O)NS(=O)(=O)c2ccc(N=S(C)(C)=O)s2)CCC3)ccn1` [Compound 3] registered a 50% inhibitory concentration (IC50) of 10 nM.

Molecule `CS(C)(=O)=Nc1ccc(S(=N)(=O)NC(=O)Nc2c(-c3ccnc(C#N)c3)ccc3c2CCC3)s1` (stereo not drawn) [Compound 8] came in with an IC50 against NLRP3 of 27.8 nM.

As to `CC(C)(O)c1coc(S(=O)(=O)NC(=O)Nc2c3c(cc4c2CCC4)CCC3)c1` [MCC950, reference compound], the “severity of experimental autoimmune encephalomyelitis (EAE)” value in data set [4] is “reduce the severity”. In data set [2], the “level of IL-1β in APLV after treatment” value is listed as “decreased rapidly” and the “level of IL-6 in APLV after treatment” value is reported as “decreased rapidly”.

A word on the IC50: it is the concentration that inhibits the measured activity by half. High values mean lower potency, low ones higher potency. For orientation: AUC(0-inf) means total exposure, with the tail of the curve extrapolated. High values mean high exposure, low ones low exposure. What is called Vd is the apparent volume that relates the amount in the body to the concentration in plasma or blood. Read a low Vd as little distribution into tissue. Broadly, the clearance is the rate of elimination divided by the concentration. The low end stands for a low capacity for elimination, the high end for a high capacity for elimination. As a reminder, the half-life is the time in which the quantity being followed falls by half. By Cmax is commonly meant the peak of the concentration-time curve. One may read the Tmax as the time at which the peak concentration occurs.
